Experiment: Solid form stability at ambient conditions, XRPD
Assay type: physicochemical
Conditions: sulfate; for transformation of the form at ambient conditions: storage at ambient conditions
Procedure: X-Ray Powder Diffraction patterns were collected on a Bruker D8 diffractometer using Cu Kα radiation (40 kV, 40 mA), 0-20 goniometer, and divergence of V4 and receiving slits, a Ge monochromator and a Lynxeye detector. The instrument is performance checked using a certified Corundum standard (NIST 1976). The software used for data collection was Diffrac Plus XRD Commander v2.6.1 and the data were analysed and presented using Diffrac Plus EVA v13.0.0.2 or v15.0.0.0. Samples were run under ambient conditions as flat plate specimens using powder as received. The sample was gently packed into a cavity cut into polished, zero-background (510) silicon wafer. The sample was rotated in its own plane during analysis. The details of the data collection are: angular range: 2 to 42 °2θ; step size: 0.05 °2θ; collection time: 0.5 s/step. Amorphous material (˜60 mg) was generated as in Procedure 1. The amorphous material was suspended in different solvent systems (3 mL) at 50° C. A sample was withdrawn after 3 h and 24 h. The final product was filtered after 48 h and analysed by XRPD. The solids isolated were re-analysed again by XRPD after few days at ambient conditions (˜25° C. and ˜40% RH).

Compound | stability of the form (Summary of Forms, Description) | transformation of the form at ambient conditions
O=C1N2C[C@@H](CC[C@H]2c2nnco2)N1OS(=O)(=O)[O-].[Na+] [Hydrate 2, sodium (2S,5R)-2-(1,3,4-oxadiazol-2-yl)-7-oxo-1,6-diazabicyclo[3.2.1]octan-6-yl sulfate] | Metastable, hexa-hydrate | –
O=C1N2C[C@@H](CC[C@H]2c2nnco2)N1OS(=O)(=O)[O-].[Na+] [Hydrate 3, sodium (2S,5R)-2-(1,3,4-oxadiazol-2-yl)-7-oxo-1,6-diazabicyclo[3.2.1]octan-6-yl sulfate] | Metastable, suspected mono-hydrate | metastable and transform to Hydrate 5 or Hydrate 1
O=C1N2C[C@@H](CC[C@H]2c2nnco2)N1OS(=O)(=O)[O-].[Na+] [Hydrate 4, sodium (2S,5R)-2-(1,3,4-oxadiazol-2-yl)-7-oxo-1,6-diazabicyclo[3.2.1]octan-6-yl sulfate] | Metastable, suspected hemi-hydrate | metastable and transforms to Hydrate 1
O=C1N2C[C@@H](CC[C@H]2c2nnco2)N1OS(=O)(=O)[O-].[Na+] [Hydrate 5, sodium (2S,5R)-2-(1,3,4-oxadiazol-2-yl)-7-oxo-1,6-diazabicyclo[3.2.1]octan-6-yl sulfate] | Metastable, di-hydrate | –
O=C1N2C[C@@H](CC[C@H]2c2nnco2)N1OS(=O)(=O)[O-].[Na+] [Hydrate 6, sodium (2S,5R)-2-(1,3,4-oxadiazol-2-yl)-7-oxo-1,6-diazabicyclo[3.2.1]octan-6-yl sulfate] | Metastable, suspected mono-hydrate, | metastable and transform to Hydrate 5 or Hydrate 1
O=C1N2C[C@@H](CC[C@H]2c2nnco2)N1OS(=O)(=O)[O-].[Na+] [Hydrate 7, sodium (2S,5R)-2-(1,3,4-oxadiazol-2-yl)-7-oxo-1,6-diazabicyclo[3.2.1]octan-6-yl sulfate] | Metastable, only isolated as a mixture | –
